Test results as given in ChEMBL document CHEMBL5360620, “Diphenyl Ether Derivative Rhexocerins and Rhexocercosporins from the Endophytic Fungus Rhexocercosporidium sp. Dzf14 Active against Gram-Positive Bacteria with Multidrug-Resistance” (J Nat Prod, 2023).
≈ marks a conversion by molar mass, not a printed value.

Columns and labels:
HCT-8 = experiment: Cytotoxicity against human HCT-8 cells by MTT assay; type: toxicity, cell-based
PANC-1 = experiment: Cytotoxicity against human PANC-1 cells by MTT assay; type: toxicity, cell-based
HGC-27 = experiment: Cytotoxicity against human HGC-27 cells by MTT assay; type: toxicity, cell-based
HepG2 = experiment: Cytotoxicity against human HepG2 cells by MTT assay; type: toxicity, cell-based
PC-9 = experiment: Cytotoxicity against human PC-9 cells by MTT assay; type: toxicity, cell-based
Escherichia coli = experiment: Antibacterial activity against multi-drug resistant Escherichia coli B2 clinical isolate incubated for 18 hrs by broth microdilution method; type: functional
Pseudomonas aeruginosa = experiment: Antibacterial activity against wild-type Pseudomonas aeruginosa PAO1 incubated for 18 hrs by broth microdilution method; type: functional
Staphylococcus aureus = experiment: Antibacterial activity against methicillin-resistant Staphylococcus aureus T144 incubated for 18 hrs by broth microdilution method; type: functional
Enterococcus faecalis = experiment: Antibacterial activity against vancomycin-resistant Enterococcus faecalis 10 incubated for 18 hrs by broth microdilution method; type: functional

Compound	Activity (HCT-8)	Activity (PANC-1)	Activity (HGC-27)	Activity (HepG2)	Activity (PC-9)	MIC (Escherichia coli) [µg/mL]	MIC (Pseudomonas aeruginosa) [µg/mL]	MIC (Staphylococcus aureus) [µg/mL]	MIC (Enterococcus faecalis) [µg/mL]
COC(=O)c1c(OC)cc2c(c1C)C=C1c3c(cc(C)c(O)c3O2)OC1(C)C	Non-Toxic	Non-Toxic	Non-Toxic	Non-Toxic	Non-Toxic	–	–	–	–
COC(=O)c1c(O)cc2c(c1C)C=C1c3c(cc(C)c(O)c3O2)OC1(C)C	Non-Toxic	Non-Toxic	Non-Toxic	Non-Toxic	Non-Toxic	> 32	> 32	16 (≈ 43.4 µM)	16 (≈ 43.4 µM)
COLISTIN	–	–	–	–	–	2	0.13	–	–
CC(C)=C[C@H]1c2c(O)cc(C)cc2Oc2cc(O)c(C(=O)O)c(C)c21	Non-Toxic	Non-Toxic	Non-Toxic	Non-Toxic	Non-Toxic	> 32	> 32	16 (≈ 47 µM)	16 (≈ 47 µM)
COC(=O)c1c(OC)cc2c(c1C)[C@H](O)[C@H]1c3c(cc(C)c(O)c3O2)OC1(C)C	Non-Toxic	Non-Toxic	Non-Toxic	Non-Toxic	Non-Toxic	–	–	–	–
COC(=O)c1c(OC)cc2c(c1C)[C@@H](C=C(C)C)c1c(O)cc(C)cc1O2	Non-Toxic	Non-Toxic	Non-Toxic	Non-Toxic	Non-Toxic	> 32	> 32	4 (≈ 10.9 µM)	4 (≈ 10.9 µM)
CN[C@H](CC(C)C)C(=O)N[C@H]1C(=O)N[C@@H](CC(N)=O)C(=O)N[C@H]2C(=O)N[C@H]3C(=O)N[C@H](C(=O)N[C@H](C(=O)O)c4cc(O)cc(O)c4-c4cc3ccc4O)[C@H](O)c3ccc(c(Cl)c3)Oc3cc2cc(c3O[C@@H]2O[C@H](CO)[C@@H](O)[C@H](O)[C@H]2O[C@H]2C[C@](C)(N)[C@H](O)[C@H](C)O2)Oc2ccc(cc2Cl)[C@H]1O [VANCOMYCIN]	–	–	–	–	–	–	–	–	> 128
COC(=O)c1c(O)cc2c(c1C)[C@@H](C=C(C)C)C1=C(O2)C(=O)C(C)=CC1=O	Non-Toxic	Non-Toxic	Non-Toxic	Non-Toxic	Non-Toxic	> 32	> 32	> 32	8 (≈ 21.7 µM)
COC(=O)c1c(OC)cc2c(c1C)[C@@H](C=C(C)C)C1=C(O2)C(=O)C(C)=CC1=O	Non-Toxic	Non-Toxic	Non-Toxic	Non-Toxic	Non-Toxic	> 32	> 32	32 (≈ 83.7 µM)	8 (≈ 20.9 µM)
COC(=O)c1c(O)cc2c(c1C)[C@@H](C=C(C)C)c1c(O)cc(C)cc1O2	Non-Toxic	Non-Toxic	Non-Toxic	Non-Toxic	Non-Toxic	> 32	> 32	16 (≈ 45.1 µM)	8 (≈ 22.6 µM)
COC(=O)c1c(OC)cc2c(c1C)[C@H](OC)[C@H]1c3c(cc(C)c(O)c3O2)OC1(C)C	Non-Toxic	Non-Toxic	Non-Toxic	Non-Toxic	Non-Toxic	–	–	–	–
COC(=O)c1c(OC)cc2c(c1C)[C@@H](C=C(C)C)c1c(O)cc(C)c(OC)c1O2	Non-Toxic	Non-Toxic	Non-Toxic	Non-Toxic	Non-Toxic	–	–	–	–
